Like-named read-outs stand apart in the source and are kept apart here. Marks after values point to notes of the source that are not given here.
Key:
[1] = tested on: male ICR mice; assay: MES test (anti-epilepsy activity), mice, oral (mMES po); type: in vivo; conditions: Mus musculus; for responders at 50 mg/kg: injection amount 50 mg/kg; for responders at 50 mg/kg / responders at 30 mg/kg / responders at 100 mg/kg: read-out: mMES(po) Protection %; for ED50: mice, at peak time; for responders at 30 mg/kg: injection amount 30 mg/kg; for responders at 100 mg/kg: injection amount 100 mg/kg
Method: (§1) Biological Experimental Example. 1: Measurement of Anti-Epilepsy Activity (MES-Test)
(§2) In the MES test (Ref., G. Villetti et al. Neuropharmacology 40(2001) 866-878), an electrical stimulus (mice: 50 mA, 60 Hz, 0.2 sec, and rats: 150 mA, 60 Hz, 0.2 sec in the test animal) supplied by an 11 A Shocker (IITC Life Science Company) was delivered through corneal electrodes. All mice or rats assigned to any electroshock at peak time were treated with each test compound sample which was dissolved in 20% tween 80 prepared by saline solvent applied orally before the test. […] Three doses of the test sample were administered orally to 9-18 animals (3-6 mice per dose) for evaluating the respective doses at which 50% of the animals were protected from seizure (ED50). The ED50 value (median effective close) was calculated by Litchfield and Wicoxon log-probit method which is a dose-response relationship. Experimental animals, male ICR mice and male SD rats, were purchased from OrientBio, Samtako, or Nara Biotech, Korea, and housed in cages (4-5 mice or 3 rats per cage) for 4-5 days. The range of mice body weight was between 19 and 25 grams and range of rats body weight was between 100 and 130 grams.
(§3) The obtained results are shown as mean±sem. The difference between the groups was statistically analyzed by ANOVA, and then further examined by Dunnett's test or Bonferroni test. If p is less than 0.05, it was determined that the difference between the groups had statistical significance.
(§4) The results of anti-epileptic activity of the sulfamate derivative compounds measured in the above Experimental Example are shown in the following Tables 4 and 5.

[2] = tested on: male SD rats; assay: MES test (anti-epilepsy activity), rats, oral (rMES po); type: in vivo; conditions: for ED50: Rattus norvegicus, rats, at peak time; for rMES(po) Protection %: 3 rats
Method: as §1, §2, §3, §4

Row | Structure (SMILES) | ED50 [2] [mg/kg] | responders at 50 mg/kg ([1]; 3 mice) [%] | also measured
1 | CC1(C)O[C@H](c2sc(Cl)nc2Cl)[C@@H](COS(N)(=O)=O)O1 [Example 163, ((4R, 5S)-5-(2,4-dichlorothiazol-5-yl)-2,2-dimethyl-1,3-dioxolan-4-yl)methyl sulfamate] | 6.5 | – | responders at 50 mg/kg ([1]; 4 mice): 50%
2 | CC1(C)OC(COS(N)(=O)=O)C(c2ccccc2Cl)O1 (mixture of isomers) [Example 4, (5-(2-chlorophenyl)-2,2-dimethyl-1,3-dioxolan-4-yl)methyl sulfamate(SR & RS mixture)] | 5.2 | 33 | –
3 | Nc1ccccc1[C@@H]1OC2(CCCC2)O[C@H]1COS(N)(=O)=O [Example 72, ((2S, 3S)-3-(2-aminophenyl)-1,4-dioxaspiro[4,4]nonan-2-yl)methyl sulfamate] | 1 | – | ED50 [1]: 14.2 mg/kg
4 | CC1(C)O[C@@H](COS(=O)(=O)[NH][Na])[C@H](c2ccccc2N)O1 [Example 66] | 11.8 | – | ED50 [1]: 12.3 mg/kg
5 | Cc1nc(Cl)sc1[C@H]1OC(C)(C)O[C@@H]1COS(N)(=O)=O [Example 169, ((4R, 5S)-2,2-dimethyl-5-(2-chloro-4-methylthiazol-5-yl)-1,3-dioxolan-4-yl)methylsulfamate] | – | – | responders at 30 mg/kg ([1]; 3 mice): 100%; rMES(po) Protection % ([2]; injection amount 15 mg/kg): 15^a (100%)
6 | CC1(C)O[C@@H](COS(N)(=O)=O)[C@H](c2cnc(Cl)s2)O1 [Example 166, ((4R, 5S)-5-(2-chlorothiazol-5-yl)-2,2-dimethyl-1,3-dioxolan-4-yl)methylsulfamate] | 1.9 | – | responders at 100 mg/kg ([1]; 3 mice): 100%
7 | NS(=O)(=O)OC[C@@H]1OC(=O)O[C@H]1c1ccccc1[N+](=O)[O-] [Example 90, ((4S, 5S)-5-(2-nitrophenyl)-2-oxo-1,3-dioxolan-4-yl)methyl sulfamate] | 1.1 | – | ED50 [1]: 9.2 mg/kg
8 | NS(=O)(=O)OC[C@H]1OC2(CCCCC2)O[C@@H]1Cc1ccccc1Cl [Example 152, ((2R, 3R)-3-(2-chlorobenzyl)-1,4-dioxaspiro[4,5]decan-2-yl)methyl sulfamate] | – | 66.6 | –
9 | NS(=O)(=O)OCC[C@H]1OC2(CCCCC2)O[C@@H]1Cc1ccccc1Cl [Example 144, 2-((2R, 3R)-3-(2-chlorobenzyl)-1,4-dioxaspiro[4,5]decan-2-yl)ethyl sulfamate] | – | – | responders at 100 mg/kg ([1]; 3 mice): 33.3%
10 | CC1(C)O[C@@H](COS(N)(=O)=O)[C@H](c2ccc(Cl)s2)O1 [Example 172, ((4S, 5R)-2,2-dimethyl-5-(5-chlorothiophen-2-yl)-1,3-dioxolan-4-yl)methylsulfamate] | 4.7 | – | ED50 [1]: 30.2 mg/kg
11 | CC1(C)O[C@H](COS(N)(=O)=O)[C@H](c2ccccc2Cl)O1 [Example 161, ((4R, 5S)-5-(2-chlorophenyl)-2,2-dimethyl-1,3-dioxolan-4-yl)methyl sulfamate] | – | – | responders at 100 mg/kg ([1]; 3 mice): 100%
12 | Cc1ccccc1[C@@H]1OC(C)(C)O[C@H]1COS(N)(=O)=O [Example 92, ((4S, 5S)-5-(2-methylphenyl)-2,2-dimethyl-1,3-dioxolan-4-yl)methyl sulfamate] | – | 100 | –
13 | CC1(C)O[C@H](COS(N)(=O)=O)[C@@H](Cc2ccccc2)O1 [Example 122, ((4R, 5R)-5-benzyl-2,2-dimethyl-1,3-dioxolan-4-yl)methyl sulfamate] | – | 100 | –
14 | CC1(C)O[C@@H](COS(N)(=O)=O)[C@H](c2sc(Cl)nc2Cl)O1 [Example 164, ((4S, 5R)-5-(2,4-dichlorothiazol-5-yl)-2,2-dimethyl-1,3-dioxolan-4-yl)methyl sulfamate] | 13.2 | 100 | –
15 | CCC1(CC)O[C@H](CCOS(N)(=O)=O)[C@@H](Cc2ccccc2Cl)O1 [Example 140, 2-((4R, 5R)-5-(2-chlorobenzyl)-2,2-diethyl-1,3-dioxolan-4-yl)ethyl sulfamate] | – | 33.3 | –
16 | CC1(C)OC(COS(N)(=O)=O)C(c2cncnc2)O1 (stereo not drawn) [Example 175] | – | – | responders at 100 mg/kg ([1]; 3 mice): 100%
17 | Cc1ncsc1[C@@H]1OC(C)(C)O[C@H]1COS(N)(=O)=O [Example 168, ((4S, 5R)-2,2-dimethyl-5-(4-methylthiazol-5-yl)-1,3-dioxolan-4-yl)methylsulfamate] | 4.9 | – | responders at 100 mg/kg ([1]; 3 mice): 100%
18 | CC1(C)O[C@@H](COS([NH-])(=O)=O)[C@H](c2ccccc2Cl)O1.[Na+] [Example 177, sodium ((((4S,5S)-5-(2-chlorophenyl)-2,2-dimethyl-1,3-dioxolan-4-yl)methoxy)sulfonyl)amide] | – | – | rMES(po) Protection % ([2]; injection amount 3.5 mg/kg): 3.5^a (100%)
19 | NS(=O)(=O)OC[C@@H]1OC2(CCCC2)O[C@H]1c1ccccc1Cl [Example 10, ((2S, 3 S)-3-(2-chlorophenyl)-1,4-dioxaspiro[4,4]nonan-2-yl)methyl sulfamate] | – | – | responders at 30 mg/kg ([1]; 3 mice): 66%
20 | CC1(C)O[C@@H](COS(N)(=O)=O)[C@H](c2ccccc2F)O1 [Example 16, ((4S, 5S)-5-(2-fluorophenyl)-2,2-dimethyl-1,3-dioxolan-4-yl)methyl sulfamate] | 7.7 | 100 | –
21 | CC1(C)O[C@H](c2ccccc2I)[C@@H](COS(N)(=O)=O)O1 [Example 27, ((4R, 5R)-5-(2-iodophenyl)-2,2-dimethyl-1,3-dioxolan-4-yl)methyl sulfamate] | – | – | ED50 [1]: 27.6 mg/kg
22 | CC1(C)OC(COS(N)(=O)=O)C(c2cnccc2Cl)O1 (stereo not drawn) [Example 174, (5-(4-chloropyridin-3-yl)-2,2-dimethyl-1,3-dioxolan-4-yl)methylsulfamate] | – | – | responders at 100 mg/kg ([1]; 3 mice): 100%
23 | NS(=O)(=O)OCC[C@@H]1OC2(CCCC2)O[C@H]1c1ccccc1Cl [Example 158, 2-((2S, 3S)-3-(2-chlorophenyl)-1,4-dioxaspiro[4,4]nonan-2-yl)ethyl sulfamate] | – | 100 | –
24 | CCC1(CC)O[C@H](COS(N)(=O)=O)[C@@H](Cc2ccccc2Cl)O1 [Example 148, ((4R, 5R)-5-(2-chlorobenzyl)-2,2-diethyl-1,3-dioxolan-4-yl)methyl sulfamate] | – | 33.3 | –
25 | CCC1(CC)O[C@H](COS(N)(=O)=O)[C@@H](Cc2ccccc2)O1 [Example 124, ((4R, 5R)-5-benzyl-2,2-diethyl-1,3-dioxolan-4-yl)methyl sulfamate] | – | 100 | –
